This is an account of results in patent US20070249599A1, “Novel Chemical Compounds” (priority 2004, published 2007).

One may read the IC50 as the point on the concentration scale where inhibition reaches its midpoint.

This test concerns the target T1, hYAK3 (Homo sapiens, UniProt O43781).
T1 construct: GST (N); His6 (C); made in house; host or cells: baculovirus expression system in Sf9 cells
T1 sequence (O43781 124-526): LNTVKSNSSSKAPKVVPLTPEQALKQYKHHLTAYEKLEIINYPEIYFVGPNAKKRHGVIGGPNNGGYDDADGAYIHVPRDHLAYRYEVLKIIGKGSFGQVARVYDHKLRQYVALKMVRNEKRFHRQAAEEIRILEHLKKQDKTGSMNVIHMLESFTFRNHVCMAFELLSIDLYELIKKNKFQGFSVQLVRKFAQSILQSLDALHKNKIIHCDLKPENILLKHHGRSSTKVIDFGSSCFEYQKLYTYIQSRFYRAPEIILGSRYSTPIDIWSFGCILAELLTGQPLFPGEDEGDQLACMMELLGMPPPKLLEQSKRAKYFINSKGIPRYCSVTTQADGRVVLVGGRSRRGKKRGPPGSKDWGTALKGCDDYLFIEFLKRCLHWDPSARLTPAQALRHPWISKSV
The test can be described thus: YAK3 Scintillation Proximity Assay using Ser164 of myelin basic protein as the phosphoacceptor (kinase assay of purified hYAK3). As to conditions: purified GST-hYak3-His6 (aa 124-526), 4 nM; 0.001 mM ATP; 4 μM Ser164 peptide; 2 hours at room temperature; pIC50 = −log10(IC50). It counts as biochemical. The protocol: Substrate phosphorylation assays were carried out as follows:
YAK3 Scintillation Proximity Assays Using Ser164 of Myelin Basic Protein as the Phosphoacceptor
The source of Ser164 substrate peptide The biotinylated Ser164, S164A peptide(Biotinyl-LGGRDSRAGS*PMARR-OH), sequence derived from the C-terminus of bovine myelin basic protein (MBP) with Ser162 substituted as Ala 162, was purchased from California Peptide Research Inc. (Napa, Calif.), and its purity was determined by HPLC. Phosphorylation occurs at position 164 (marked S* above). The calculated molecular mass of the peptide was 2166 dalton. Solid sample was dissolved at 10 mM in DMSO, aliquoted, and stored at −20° C. until use.
hYAK3: Glutathione-S-Transferase (GST)-hYak3-His6 containing amino acid residues 124-526 of human YAK3 (aa 124-526 of SEQ ID NO 2. in U.S. Pat. No. 6,323,318) was purified from baculovirus expression system in Sf9 cells using Glutathione Sepharose 4B column chromatography followed by Ni-NTA-Agarose column chromatography. Purity greater than 65% typically was achieved. Samples, in 50 mM Tris, 150 mM NaCl, 10% glycerol, 0.1% Triton, 250 mM imidazole, 10 mM β-mercapto ethanol, pH 8.0. were stored at −80° C. until use.
Kinase assay of purified hYAK3: Assays were performed in 96 well (Costar, Catalog No. 3789) or 384 well plates (Costar, Catalog No. 3705). Reaction (in 20, 25, or 40 μl volume) mix contained in final concentrations 25 mM Hepes buffer, pH 7.4; 10 mM MgCl2; 10 mM β-mercapto ethanol; 0.0025% Tween-20; 0.001 mM ATP, 0.1 μCi of [γ-^33P]ATP; purified hYAK3 (7-14 ng/assay; 4 nM final); and 4 μM Ser164 peptide. Compounds, titrated in DMSO, were evaluated at concentrations ranging from 50 μM to 0.5 nM. […] Reactions were incubated for 2 hours at room temperature and were stopped by a 75 ul addition of […] Streptavidin Scintillation Proximity beads (Amersham Pharmacia Biotech, Catalog No. RPNQ 0007) in PBS, pH 7.4, 10 mM EDTA, 0.1% Triton X-100, 1 mM ATP. Under the assay conditions defined above, the Km(apparent) for ATP was determined to be 7.2+/−2.4 μM.
On the technique in general: In a scintillation proximity assay essentially only radioactivity close to the scintillant gives light.
In turn, `Cn1c(C(C)(C)C)nc2ccc(/C=C3\SC(Nc4ccccc4Cl)=NC3=O)cc21` [Example 53, (5Z)-2-[(2-Chlorophenyl)amino]-5-{[2-(1,1-dimethylethyl)-1-methyl-1H-benzimidazol-6-yl]methylidene}-1,3-thiazol-4(5H)-one] gave an IC50 of 102 to 1000 nM.
`CN(C)CCn1nnc2ccc(/C=C3\SC(Nc4c(Cl)cccc4Cl)=NC3=O)cc21` [Example 58, (5Z)-2-[(2,6-dichlorophenyl)amino]-5-({1-[2-(dimethylamino)ethyl]-1H-1,2,3-benzotriazol-6-yl}methylidene)-1,3-thiazol-4(5H)-one]: the IC50 is 10.2 to 100 nM.
The compound `Cc1nc2ccc(C=C3SC(=Nc4c(Cl)cccc4Cl)NC3=O)cc2o1` [Example 59, 2-(2,6-Dichloro-phenylimino)-5-(2-methyl-benzooxazol-6-yl-methylene)-thiazolidin-4-one] had an IC50 of 1.02 to 10 nM.
